# Source: publication PMC10246557, “Kinetic and inhibition studies on human Jumonji-C (JmjC) domain-containing protein 5” (RSC Chemical Biology, 2023)
# Where two headings read alike, the source gives them in different places. Ends that are not written are not given here.
# How the values were obtained:
# [1] = biological target: T1, human JMJD5 (Homo sapiens, UniProt Q8N371); experiment: SPE-MS JMJD5 turnover and kinetic assay (RPS6_128–148 hydroxylation); type: biochemical; conditions: for JMJD5 (%): RPS6_128–148 hydroxylation with the compound as cosubstrate: absence of 2OG, JMJD5 0.15 μM, 2OG derivative 400 μM, Fe(II) 20 μM, RPS6_128–148 2.0 μM; for JMJD5-catalyzed RPS6_128–148 hydroxylation, time course: after 50 min, 10 μM cosubstrate, 0.15 μM JMJD5, 10 μM Fe(II), 2.0 μM RPS6_128–148; for k app cat: calculated from vmax
# T1 construct: made in house; host or cells: Escherichia coli BL21(DE3)
# T1 sequence (Q8N371 whole entry): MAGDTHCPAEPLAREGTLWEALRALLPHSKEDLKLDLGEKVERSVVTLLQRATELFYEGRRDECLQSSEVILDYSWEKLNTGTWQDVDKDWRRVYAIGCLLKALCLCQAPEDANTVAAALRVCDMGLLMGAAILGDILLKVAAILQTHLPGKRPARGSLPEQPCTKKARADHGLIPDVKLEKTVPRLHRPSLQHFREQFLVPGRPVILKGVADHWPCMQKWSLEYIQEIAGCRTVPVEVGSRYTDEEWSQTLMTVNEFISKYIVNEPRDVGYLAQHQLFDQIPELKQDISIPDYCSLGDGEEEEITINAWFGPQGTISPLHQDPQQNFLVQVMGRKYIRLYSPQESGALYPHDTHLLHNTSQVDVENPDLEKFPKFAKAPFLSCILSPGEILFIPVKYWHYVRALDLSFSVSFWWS
# [2] = biological target: T1, human JMJD5; experiment: SPE-MS JMJD5 inhibition assay; type: biochemical; conditions: JMJD5 0.15 μM, 2OG 2.0 μM, Fe(II) 2.0 μM, LAA 100 μM, RPS6_128–148 2.0 μM; read-out: IC50 JMJD5
# Method: Solutions of the small-molecules (100% DMSO) were dry dispensed across 384 well polypropylene V-bottom assay microplates (Greiner) in an approximately three-fold and 11-point dilution series (100 μM inhibitor top concentration; the final DMSO assay concentration was kept constant at 0.5%v/v) using an ECHO 550 acoustic dispenser (Labcyte). […] Each reaction was performed in technical duplicates in adjacent wells of the assay plates; additionally, assays were performed in two independent duplicates on different days using different inhibitor solutions.
# The Enzyme Mixture (25 μL per well), containing 0.3 μM His6-thioredoxin-tagged JMJD5 in buffer (50 mM MOPS, pH 7.5), was dispensed across the inhibitor-containing 384-well plates with a multidrop dispenser (ThermoFischer Scientific) at 20 °C under an ambient atmosphere. The plates were subsequently centrifuged (1000 rpm, 5 s) and incubated for 15 min at 20 °C. […] The plates were centrifuged (1000 rpm, 5 s) and, after incubating for 30 min, the enzyme reaction was stopped by the addition of 10%v/v aqueous formic acid (5 μL per well). The plates were then centrifuged (1000 rpm, 30 s) and analyzed by MS.
# Z′-Factors were calculated according to the cited literature using Microsoft Excel.[61]
# [3] = biological target: T2, human KDM4E (Homo sapiens, UniProt B2RXH2); experiment: KDM4E SPE-MS turnover and kinetic assay (H3 K9(me3) peptide demethylation); type: biochemical; conditions: for KDM4E (%): substrate demethylation with the compound as cosubstrate: absence of 2OG, KDM4E 0.15 μM, 2OG derivative 330 μM, Fe(II) 50 μM
# T2 sequence (B2RXH2 1-506): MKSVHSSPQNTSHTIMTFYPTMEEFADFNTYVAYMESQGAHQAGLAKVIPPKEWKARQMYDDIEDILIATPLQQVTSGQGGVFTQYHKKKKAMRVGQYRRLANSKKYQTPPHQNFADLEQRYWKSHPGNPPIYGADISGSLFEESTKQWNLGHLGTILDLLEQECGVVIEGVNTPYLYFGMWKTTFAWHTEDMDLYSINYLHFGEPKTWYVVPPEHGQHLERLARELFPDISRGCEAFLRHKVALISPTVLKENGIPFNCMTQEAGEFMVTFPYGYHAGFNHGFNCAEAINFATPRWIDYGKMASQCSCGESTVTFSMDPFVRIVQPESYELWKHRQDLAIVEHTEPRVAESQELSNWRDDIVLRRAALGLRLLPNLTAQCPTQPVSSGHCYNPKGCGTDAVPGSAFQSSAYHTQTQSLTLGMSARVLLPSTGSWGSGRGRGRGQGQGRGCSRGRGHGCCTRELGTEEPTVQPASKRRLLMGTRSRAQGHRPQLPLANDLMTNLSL
# [4] = biological target: T2, human KDM4E; experiment: KDM4E SPE-MS inhibition assay; type: biochemical; conditions: KDM4E 0.15 μM, peptide 10.0 μM, LAA 100 μM, FAS 10 μM, 2OG 10 μM
# Method: KDM4E turnover and inhibition assays were performed as reported using recombinant human KDM4E and a histone 3 K9(me3) derivative (i.e. […](me3)STGGIA)[41] as substrate.[95] […]
# [5] = test system: human FIH; conditions: FIH 0.15 μM, cited from earlier work; for FIH (%): substrate hydroxylation with the compound as cosubstrate: absence of 2OG, 2OG derivative 330 μM, Fe(II) 50 μM, HIF-1α788–822 5.0 μM
# [6] = test system: human FIH; parameters: method as in ref 10 (ESI); conditions: FIH 0.15 μM, HIF-1α788-822 5.0 μM, 2OG 10 μM; ref 10 (ESI); cited from earlier work
# [7] = test system: human AspH; conditions: cited from earlier work; for AspH (%): substrate hydroxylation with the compound as cosubstrate: absence of 2OG, AspH 0.1 μM, 2OG derivative 330 μM, Fe(II) 50 μM, hFX-CP101–119 2.0 μM
# [8] = test system: human AspH; parameters: method as in ref 9 (ESI); conditions: AspH 0.05 μM, hFX-CP101-119 1.0 μM, 2OG 3.0 μM; ref 9 (ESI); cited from earlier work
# [9] = test system: JMJD5; conditions: cited from earlier work; for K m: 10.0 μM JMJD5, 50 mM HEPES pH 7.5, read-out: Km JMJD5 (MALDI-TOF MS assay)
# [10] = test system: KDM4C; parameters: method as in PMID 21859681; conditions: KDM4C 0.5 μM, ARTAQTARK(me3)STGGIA substrate; cited from earlier work
# [11] = test system: PHD2; parameters: method as in PMID 18952043; conditions: PHD2 1.0 nM, cited from earlier work
# [12] = 0.15 μM JMJD5, 50 mM MOPS pH 7.5, 20 °C, 100 μM LAA present
# [13] = 0.15 μM JMJD5, 50 mM MOPS pH 7.5, 20 °C, LAA present
# [14] = AspH315–758 0.1 μM, hFX–CP101–119 substrate
Compound,IC50 [2] [µM],IC50 [4] [µM],IC50 [6] [µM],IC50 [8] [µM],JMJD5 (%): RPS6_128–148 hydroxylation with the compound as cosubstrate [1],KDM4E (%): substrate demethylation with the compound as cosubstrate ([3]; ARTAQTARK(me3)STGGIA 10.0 μM),FIH (%): substrate hydroxylation with the compound as cosubstrate [5],AspH (%): substrate hydroxylation with the compound as cosubstrate [7],further results
"CC(CC(=O)O)C(=O)C(=O)O (stereo not shown) [2OG derivative 1, 3-methyl-2OG]",> 50,> 30,> 50,> 50,–,–,–,–,"JMJD5 (%): RPS6_128–148 hydroxylation with the compound as cosubstrate ([1]; listed as Entry 2): ~ 10%; JMJD5-catalyzed RPS6_128–148 hydroxylation, time course [1]: ~20%; fold less efficient KDM4E cosubstrate than 2OG [3]: ~7 fold; KDM4E (%): substrate demethylation with the compound as cosubstrate ([3]; ARTAQTARK(me3)STGGIA 10.0 μM, listed as Entry 2): ~ 10%; FIH (%): substrate hydroxylation with the compound as cosubstrate ([5]; listed as Entry 2): ~ 55%; AspH (%): substrate hydroxylation with the compound as cosubstrate ([7]; listed as Entry 2): > 95%"
"RPS6_129–144: truncated version of the RPS6_128–148 substrate peptide used in MALDI-TOF MS assays (VPRRLGPKRASRIRKL-NH2; UniProt P62753 129-144, looked up, fragment)",–,–,–,–,–,–,–,–,K m [9]: ~60 µM
"O=C(O)CCC(=O)C(=O)O [2OG, 2-oxoglutarate, reference compound]",–,–,–,–,~ 40%,~ 70%,~ 50%,–,"v app max [1, 12]: 0.84 ± 0.03 nM/s; K app m [1, 13]: 0.29 ± 0.04 µM; k app cat [1, 13]: 0.0056 ± 0.0002 s⁻¹; JMJD5-catalyzed RPS6_128–148 hydroxylation, time course [1]: ~50%; K app m ([3]; 0.15 μM KDM4E, ARTAQTARK(me3)STGGIA 10 μM): 4.2 ± 1.1 µM; v app max ([3]; 0.15 μM KDM4E, ARTAQTARK(me3)STGGIA 10.0 μM, 50 mM MES pH 7.0, 20 °C): 20.6 ± 1.3 nM/s; K m ([5]; HIF-1α788–822 substrate): 0.8 ± 0.1 µM; k cat ([5]; HIF-1α788–822 substrate): 0.04 ± 0.01 s⁻¹; K m [7, 14]: 0.60 ± 0.09 µM; K m [10]: 2.6 ± 0.1 µM; k cat [10]: 0.075 ± 0.001 s⁻¹; K m ([11]; biotin-[…] substrate): 0.35 ± 0.03 µM; K m [9]: ~9.5 µM"
O=C(O)C(=O)c1ccc(C(=O)O)c(F)c1 [2OG derivative 29],> 50,> 50,> 50,> 50,< 1%,< 1%,< 1%,~ 8%,–
O=C(O)C(=O)c1ccc(C(=O)O)c(Br)c1 [2OG derivative 31],> 50,> 50,> 50,> 50,< 1%,< 1%,< 1%,~ 8%,–
Cc1cc(C(=O)O)ccc1C(=O)C(=O)O [2OG derivative 32],> 50,> 50,> 50,> 50,< 1%,< 1%,< 1%,~ 5%,–
O=C(O)CNC(=O)c1ncc(-c2cccc(Cl)c2)cc1O [vadadustat],–,–,–,–,–,–,–,–,IC50 ([9]; read-out: IC50 JMJD5 (MALDI-TOF MS assay)): ~54 µM
ammonium iron(II) sulfate hexahydrate [Fe(II)],–,–,–,–,–,–,–,–,"v app max [1, 12]: 0.75 ± 0.03 nM/s; k app cat [1, 13]: 0.005 ± 0.0002 s⁻¹; K app m ([1]; 0.15 μM JMJD5, absence of LAA): 0.46 ± 0.11 µM; v app max ([1]; 0.15 μM JMJD5, absence of LAA): 0.73 ± 0.05 nM/s; k app cat ([1]; 0.15 μM JMJD5, absence of LAA): 0.0049 ± 0.0004 s⁻¹; K m [7, 14]: 1.42 ± 0.16 µM; k cat [7, 14]: 0.19 ± 0.03 s⁻¹; K m ([11]; biotin-DLEMLAPYIPMDDDFQ substrate): 0.89 ± 0.07 µM; K m [9]: ~2.7 µM"
O=C(O)C(=O)c1ccc(C(=O)O)cc1Br [2OG derivative 30],> 50,> 50,> 50,> 50,< 1%,< 1%,< 1%,~ 20%,–
O=C(O)C(=O)C1(C(=O)O)CC1 [2OG derivative 25],> 50,> 50,> 50,3.3 ± 1,< 1%,< 1%,< 1%,< 1%,–
O=C(O)C(=O)c1ccc(C(=O)O)cc1F [2OG derivative 28],> 50,> 50,> 50,> 50,< 1%,< 1%,< 1%,~ 45%,–
